Data set [1] concerns the target T1, Muscarinic acetylcholine receptor M1 (Homo sapiens) (UniProt P11229).
T1 sequence (whole entry): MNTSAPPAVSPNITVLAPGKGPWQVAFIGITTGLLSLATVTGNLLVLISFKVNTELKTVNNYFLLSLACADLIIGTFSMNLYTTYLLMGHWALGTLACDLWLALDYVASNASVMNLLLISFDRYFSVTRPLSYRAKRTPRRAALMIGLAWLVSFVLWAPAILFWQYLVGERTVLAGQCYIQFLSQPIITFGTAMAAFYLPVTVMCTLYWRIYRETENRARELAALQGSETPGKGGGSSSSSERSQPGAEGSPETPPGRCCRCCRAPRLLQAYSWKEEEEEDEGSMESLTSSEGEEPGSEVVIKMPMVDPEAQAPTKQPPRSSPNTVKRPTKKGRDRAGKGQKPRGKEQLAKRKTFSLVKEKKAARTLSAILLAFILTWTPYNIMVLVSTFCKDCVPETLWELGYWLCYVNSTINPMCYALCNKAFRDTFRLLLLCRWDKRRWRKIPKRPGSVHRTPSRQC
Kind of data set: Positive allosteric modulation of human mAChR1 expressed in CHONFAT cells assessed as potention of acetylcholine-induced effect incubated for 4 mins prior to acetylcholine addition measured after 4 mins by FLIPR assay. Format: cell-based.

Data set [2] in a line: Plasma protein binding in rat by equilibrium dialysis method. The format is ADME, cell-free. The note with it: read-out: PPB (converted). A general note: In equilibrium dialysis only unbound substance equilibrates across the membrane.
Data set [3] can be described thus: Plasma protein binding in human by equilibrium dialysis method. Particulars: read-out: PPB (converted). The format is ADME, cell-free.
The nature of data set [4]: Apparent passive permeability of the compound. The format is physicochemical. The note with it: not told.
In data set [5] the target is MDR1 (ABCB1, P-glycoprotein) (Homo sapiens, UniProt P08183). Kind of data set: Effect on human MDR1-mediated drug transport assessed as efflux ratio of permeability from basolateral to apical side over apical to basolateral side. Format: ADME. Particulars: not told.
MDR1 (ABCB1, P-glycoprotein), sequence (P08183 whole entry): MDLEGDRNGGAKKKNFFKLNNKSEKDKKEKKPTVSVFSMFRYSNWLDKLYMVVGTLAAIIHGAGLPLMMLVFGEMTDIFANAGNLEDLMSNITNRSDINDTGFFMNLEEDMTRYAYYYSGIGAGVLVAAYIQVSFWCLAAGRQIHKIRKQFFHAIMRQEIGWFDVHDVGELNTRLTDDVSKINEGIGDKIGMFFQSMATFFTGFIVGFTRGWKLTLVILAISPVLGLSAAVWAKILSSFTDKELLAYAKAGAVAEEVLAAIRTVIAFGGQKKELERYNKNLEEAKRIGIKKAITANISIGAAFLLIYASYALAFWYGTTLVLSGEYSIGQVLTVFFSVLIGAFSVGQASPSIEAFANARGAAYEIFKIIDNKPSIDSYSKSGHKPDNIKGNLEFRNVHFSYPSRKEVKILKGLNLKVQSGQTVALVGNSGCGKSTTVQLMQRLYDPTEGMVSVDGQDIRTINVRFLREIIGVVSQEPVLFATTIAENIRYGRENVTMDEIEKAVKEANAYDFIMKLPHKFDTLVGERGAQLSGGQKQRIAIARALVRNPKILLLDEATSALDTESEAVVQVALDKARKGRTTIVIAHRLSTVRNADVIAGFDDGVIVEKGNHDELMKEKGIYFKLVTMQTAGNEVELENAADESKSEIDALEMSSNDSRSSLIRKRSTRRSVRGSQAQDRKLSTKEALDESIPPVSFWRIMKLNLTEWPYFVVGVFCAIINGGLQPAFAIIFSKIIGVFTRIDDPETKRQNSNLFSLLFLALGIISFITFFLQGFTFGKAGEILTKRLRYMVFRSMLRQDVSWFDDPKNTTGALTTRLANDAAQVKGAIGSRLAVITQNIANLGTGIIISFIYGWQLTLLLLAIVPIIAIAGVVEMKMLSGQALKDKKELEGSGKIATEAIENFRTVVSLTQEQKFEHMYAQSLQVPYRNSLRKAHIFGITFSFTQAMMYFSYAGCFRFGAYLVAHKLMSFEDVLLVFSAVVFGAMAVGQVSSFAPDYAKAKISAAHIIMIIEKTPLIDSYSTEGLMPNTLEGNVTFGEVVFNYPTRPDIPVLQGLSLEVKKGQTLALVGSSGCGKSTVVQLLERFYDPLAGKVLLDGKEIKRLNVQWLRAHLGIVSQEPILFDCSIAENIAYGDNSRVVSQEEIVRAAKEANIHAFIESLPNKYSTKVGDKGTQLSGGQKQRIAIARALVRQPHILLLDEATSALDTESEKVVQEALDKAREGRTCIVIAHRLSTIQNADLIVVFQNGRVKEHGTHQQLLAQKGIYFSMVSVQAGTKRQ
The next data set deals with MDR1a. Kind of data set: Effect on rat MDR1a-mediated drug transport assessed as efflux ratio of permeability from basolateral to apical side over apical to basolateral side. Format: ADME. Particulars: not told.
In data set [6] the test system is Plasma. Kind of data set: Plasma concentration in Sprague-Dawley rat at 10 mg/kg, po. The format is ADME, organism-based. More on the design: dose 10 mg/kg, route oral. The note with it: in vivo.
The next data set concerns Cerebrospinal fluid. Kind of data set: Drug uptake in cerebrospinal fluid in Sprague-Dawley rat at 10 mg/kg, po. The format is ADME, organism-based. More on the design: dose 10 mg/kg, route oral. Particulars: in vivo, read-out: Drug uptake.
The next data set relates to Nucleic Acid. Put plainly: Ratio of drug uptake in Sprague-Dawley rat cerebrospinal fluid to unbound plasma level in rat. The format is ADME.
The nature of data set [7]: Solubility of the compound at pH 2. Format: physicochemical. The note with it: buffer.
Data set [8] in a line: Solubility of the compound at pH 7. The format is physicochemical. The note with it: buffer.
Data set [9] is described as follows: Lipophilicity, log D of the compound by HPLC analysis. The format is physicochemical.
Data set [10] deals with Mus musculus. Kind of data set: Reversal of scopolamine-induced memory deficit in ip dosed B6SJL mouse contextual fear conditioning model at 1 uM plasma level after 30 mins relative to vehicle-treated control. The format is functional, organism-based.
Data set [11] deals with T1, Muscarinic acetylcholine receptor M1 (Homo sapiens). Kind of data set: Potentiation of human mAChR1 expressed in CHONFAT cells assessed as fold shift in acetylcholine response curve at 1.8 uM incubated for 4 mins prior to acetylcholine addition measured after 4 mins relative to control. The format is cell-based.
For data set [12] the target is unchanged. Put plainly: Potentiation of human mAChR1 expressed in CHONFAT cells assessed as fold shift acetylcholine response curve incubated for 4 mins prior to acetylcholine addition measured after 4 mins relative to control. The format is cell-based.
Data set [13] concerns Mus musculus. Put plainly: Reversal of scopolamine-induced memory deficit in B6SJL mouse contextual fear conditioning model at 1 mg/kg, ip after 30 mins relative to vehicle-treated control. Format: functional, organism-based. More on the design: dose 1 mg/kg.
Data set [14] has as its system Plasma. Kind of data set: Plasma concentration in B6SJL mouse contextual fear conditioning model at 1 mg/kg, ip. Format: ADME, organism-based. Set-up: dose 1 mg/kg, route intraperitoneal. The note with it: in vivo.
Data set [15] can be described thus: Clearance in rat at 2 mg/kg, iv. Format: ADME, organism-based. More on the design: dose 2 mg/kg, route intravenous. Particulars: in vivo.
The nature of data set [16]: Volume of distribution at steady state in rat at 2 mg/kg, iv. The format is ADME, organism-based. Set-up: dose 2 mg/kg, route intravenous. The note with it: in vivo, read-out: Vdss.
Data set [17] in a line: Half life in rat at 2 mg/kg, iv. Format: ADME, organism-based. Set-up: dose 2 mg/kg, route intravenous. Particulars: in vivo.
Data set [18] can be described thus: Clearance in dog at 0.125 mg/kg, iv. Format: ADME, organism-based, Canis lupus familiaris. Particulars: in vivo. More on the design: dose 0.125 mg/kg, route intravenous.
Data set [19] can be described thus: Volume of distribution at steady state in dog at 0.125 mg/kg, iv. Set-up: dose 0.125 mg/kg, route intravenous. The note with it: in vivo, read-out: Vdss. Format: ADME, organism-based, Canis lupus familiaris.
Data set [20] can be described thus: Half life in dog at 0.125 mg/kg, iv. Format: ADME, organism-based, Canis lupus familiaris. More on the design: dose 0.125 mg/kg, route intravenous. Particulars: in vivo.
Data set [21] is described as follows: Fraction unbound in rat plasma by equilibrium dialysis method. The format is ADME, cell-free.
Data set [22] in a line: Fraction unbound in human plasma by equilibrium dialysis method. Format: ADME, cell-free.

The text below walks through data of ChEMBL document CHEMBL3297692, “Discovery of naphthyl-fused 5-membered lactams as a new class of m1 positive allosteric modulators” (ACS Med Chem Lett, 2014).

Molecules are shown by their SMILES. In brackets after ≈: the same amount, converted by molar mass. Activity calls are given as the source filed them. The calls are words filed in the database; no cut-off is given here.

The Papp is a coefficient for how fast a substance crosses the barrier. For the molecule `N#CC1(c2cccnn2)CCN(Cc2cc3c(c4ccccc24)CN([C@H]2CCCC[C@@H]2O)C3=O)CC1`, the IP in [1] came to 27 nM. The fraction unbound was 0.146 in [2] and 0.144 in data set [3]. For the same molecule, in data set [4], the apparent permeability coefficient (Papp) was determined as 27 ×10⁻⁶ cm/s.
On to `N#CC1(c2ccccn2)CCN(Cc2cc3c(c4ccccc24)CN([C@H]2CCCC[C@H]2O)C3=O)CC1`, for which, in [1], the IP is 150 nM.
As for `N#CC1(c2ccccn2)CCN(Cc2cc3c(c4ccccc24)CN(c2ccccc2F)C3=O)CC1`, the IP in [1] was 290 nM.
Usually efflux ratio stands for the permeability from basolateral to apical divided by that in the opposite direction, in the common usage. Regarding `N#CC1(c2cnccn2)CCN(Cc2cc3c(c4ccccc24)CN([C@H]2CCCC[C@@H]2O)C3=O)CC1`, in [1], the IP worked out at 31 nM. The fraction unbound in data set [2] was 0.142; in [3], 0.086. Also, the Papp in data set [4] was determined as 31 ×10⁻⁶ cm/s. The efflux ratio in data set [5] is 8; in the data set on MDR1a it was 11.
`N#CC1(c2ccccn2)CCN(Cc2cc3c(c4ccccc24)CN(C2CCCOC2)C3=O)CC1` (centres undefined): the IP in [1] is 1500 nM.
With `N#CC1(c2ccccc2)CCN(Cc2cc3c(c4ccccc24)CN([C@H]2CCCC[C@@H]2O)C3=O)CC1`, the IP in data set [1] was 83 nM. Besides, the results for the fraction unbound in data set [2] and in data set [3] were 0.006 and 0.011, respectively. Also, the apparent permeability (Papp) in [4] was found to be 23 ×10⁻⁶ cm/s. Further, the efflux ratio in data set [5] turned out to be 1.7; in the data set on MDR1a it was 3.4.
In the case of `N#CC1(c2ccccn2)CCN(Cc2cc3c(c4ccccc24)CN([C@@H]2CCCC[C@H]2O)C3=O)CC1`, the IP in [1] stood at 540 nM.
`N#CC1(c2cccnc2)CCN(Cc2cc3c(c4ccccc24)CN([C@H]2CCCC[C@@H]2O)C3=O)CC1`: in data set [1], the IP amounted to 22 nM. Also, in data set [4], the Papp stood at 32 ×10⁻⁶ cm/s.
As to `N#CC1(c2ccncc2)CCN(Cc2cc3c(c4ccccc24)CN([C@H]2CCCC[C@@H]2O)C3=O)CC1`, in [1], the IP came out at 22 nM. For the same molecule, in [4], the apparent permeability (Papp) was determined as 30 ×10⁻⁶ cm/s. In addition, the efflux ratio stood at 26 in data set [5] and 49 in the data set with MDR1a.
What is called solubility is the dissolved amount per volume that the medium holds. The low end stands for little dissolved substance, the high end for much dissolved substance. By logD is commonly meant the decadic logarithm of the distribution of all forms, ionised or not, between an organic phase and buffer at a given pH. With `Cc1ccnc(C2(C#N)CCN(Cc3cc4c(c5ccccc35)CN([C@H]3CCCC[C@@H]3O)C4=O)CC2)c1`, the IP in [1] is 16 nM. Further, the fraction unbound in [2] was 0.007; in [3], 0.006. Besides, the apparent permeability (Papp) in [4] is 22 ×10⁻⁶ cm/s. Further, the results for the efflux ratio (in [5]; with MDR1a) were 1.3 and 4.5, respectively. Also, the concentration was determined as 2340 nM in the data set with Plasma [6] and 8.6 nM in the data set on Cerebrospinal fluid. For the same molecule, in the data set with Nucleic Acid, the Ratio is reported as 0.52. The solubility in data set [7] was determined as 179 µM (≈ 88.5 µg/mL); in [8] it was 3 µM (≈ 1.48 µg/mL). Moreover, in [9], the logD was determined as 3.3.
Take `N#CC1(c2ccccn2)CCN(Cc2cc(C(=O)O)c(=O)n3ccccc23)CC1`: the outcome with Mus musculus [10] was Active.
With `O=C1c2cc(CN3CCC(F)(c4ccccn4)CC3)c3ccccc3c2CN1[C@H]1CCCC[C@@H]1O`, the IP in [1] was determined as 58 nM. Moreover, the fraction unbound in [2] was 0.015; in data set [3] it was 0.03. The Papp in data set [4] turned out to be 34 ×10⁻⁶ cm/s. In addition, the efflux ratio in [5] was determined as 2.1; with MDR1a, 2.7.
One may read the clearance as the rate of elimination divided by the concentration. Higher therefore signals efficient removal. As usually defined, the half-life is how long it takes for the measured level to halve. A higher half-life goes with slow loss. `N#CC1(c2ccccn2)CCN(Cc2cc3c(c4ccccc24)CN([C@H]2CCCC[C@@H]2O)C3=O)CC1`: in data set [1], the IP came to 15 nM. The fraction unbound is 0.05 in [2], 0.08 in data set [3], 0.05 in [21] and 0.08 in data set [22]. Besides, the Papp in data set [4] is 34 ×10⁻⁶ cm/s. In addition, the results for the efflux ratio (in [5]; with MDR1a) were 3.2 and 4.3, respectively. For the same molecule, the concentration with Plasma [6] amounted to 5180 nM; with Cerebrospinal fluid, 134 nM; in the data set with Plasma [14], 1500 nM. Besides, the Ratio in the data set on Nucleic Acid is recorded as 0.51. The solubility in data set [7] was 195 µM (≈ 93.7 µg/mL); in [8] it was 11 µM (≈ 5.29 µg/mL). The logD in [9] stood at 2.9. The fold change (FC) in data set [11] came out at 40. Moreover, in data set [12], the Activity entry was “Dose-dependent effect”. In addition, in the data set with Mus musculus [13], the outcome was Active. The results for the clearance in data set [15] and in data set [18] were 4.1 mL/min/kg and 2.1 mL/min/kg, respectively. The results for the Vd in data set [16] and in data set [19] were 2.8 L/kg and 1.2 L/kg, respectively. The half-life was 12 h in data set [17] and 6.7 h in data set [20].
Regarding `CC1c2c(cc(CN3CCC(C#N)(c4ccccn4)CC3)c3ccccc23)C(=O)N1[C@H]1CCCC[C@@H]1O` (mixture of isomers), in data set [1], the IP was 19 nM. For the same molecule, the fraction unbound was 0.014 in data set [2] and 0.06 in data set [3]. Further, in [4], the Papp worked out at 29 ×10⁻⁶ cm/s. Also, the efflux ratio in data set [5] amounted to 1.7; in the data set on MDR1a, 4.1. The concentration stood at 1120 nM in the data set with Plasma [6] and 4.7 nM in the data set with Cerebrospinal fluid. In the data set with Nucleic Acid, the Ratio came out at 0.3. The solubility in [7] is 198 µM; in data set [8], 19 µM. In addition, the logD in [9] turned out to be 3.4.
In the case of `N#CC1(c2ccccn2)CCN(Cc2cc3c(c4ccccc24)CN(C2CCOCC2)C3=O)CC1`, the IP in data set [1] was found to be 280 nM.
In the case of `N#CC1(c2ccncn2)CCN(Cc2cc3c(c4ccccc24)CN([C@H]2CCCC[C@@H]2O)C3=O)CC1`, the IP in [1] was 17 nM. In addition, the fraction unbound in data set [2] is 0.07; in [3], 0.09. For the same molecule, the apparent permeability (Papp) in [4] is 29 ×10⁻⁶ cm/s. The efflux ratio is 6 in data set [5] and 20 in the data set with MDR1a.
With `Cc1cccc(C2(C#N)CCN(Cc3cc4c(c5ccccc35)CN([C@H]3CCCC[C@@H]3O)C4=O)CC2)n1`, the IP in [1] came out at 27 nM. The fraction unbound in data set [2] and in data set [3] was 0.01 each time. Also, the Papp in [4] came to 28 ×10⁻⁶ cm/s. Also, the efflux ratio in data set [5] turned out to be 1.5; in the data set on MDR1a, 3.1.
